# According to patent US12721823B2, “Methods and compositions for treatment of low circulating testosterone conditions” (University of Florida Research Foundation, Inc., priority 2021, dated 2026):
# Assays:
# Format in all cases: in vivo, rat
# Sprague-Dawley rats = assay: Prepulse inhibition (PPI) of startle; conditions: for startle amplitudes: all experimental groups; for PPI of startle at PP3: vs offspring of unexposed parents
# Description: Sixty-four G1 rats (32 control and 32 sevoflurane exposed) and 122 G2 rats, which were not exposed to sevoflurane anesthesia and were subjected to animal facility rearing only, were studied. The G1 rats were sequentially evaluated in the EPM starting on ~P125, PPI of the acoustic startle response on ~P135 and MWM starting ~on P145 (FIG. 1). One half of these animals were sacrificed on ≥P160 to collect trunk blood, brain and testis and ovarian tissues for further analyses. The rest of these animals were physically restrained for 30 min on ≥P160 to measure corticosterone responses, followed by collection of tissue samples (as above) for further analyses. The G2 rats were evaluated in the EPM starting on P60 and PPI of startle on P70 (FIG. 1). One half of these animals were sacrificed on ≥P95 to collect trunk blood and brain tissue samples for further analyses, and the rest of these animals were tested for the corticosterone responses to physical restraint for 30 min on ≥P95 before collecting the trunk blood and brain tissue samples.
# The PPI of startle tests were performed using a SR-Lab startle apparatus (San Diego Instruments, San Diego, CA) as previously described.^5-7 The % PPI for each prepulse level was calculated using the following formula: % PPI=100×[(pulse alone)−(prepulse+pulse)]/pulse alone. Data were collected as Vmax amplitude.
# [1] = system: Crh, Grs, Erα, Erβ, aromatase, Gnrh, Nkcc1 and Kcc2 mRNA; assay: qRT-PCR of mRNA levels in hypothalamus and hippocampus
# Procedure: Levels of mRNA for Nkcc1 and Kcc2 in the hypothalamus and hippocampus, for Crh, Erα, Erβ, aromatase, GnRH in the hypothalamus, and for Grs in the hippocampus were analyzed via reverse transcription-PCR (qRT-PCR) in a StepOnePlus™ Real-Time PCR System (Applied Biosystems, Foster City, CA) as previously described. 5 RNA was extracted from the samples using an RNeasy Plus Kit (Qiagen, Valencia, CA), reverse transcribed with a high-capacity cDNA reverse transcription kit (Bio-Rad Laboratories, Hercules, CA), and then analyzed via qRT-PCR. Taqman probes specific for the above genes were obtained from Applied Biosystems (Carlsbad, CA): Crh (Rn01462137_m1), Gr (Rn00561369_m1), Erα (Rn01430446_m1), Erβ (Rn00562610_m1), aromatase (Rn00567222_m1), Gnrh (Rn00562754_m1), Nkcc1 (Rn00582505_m1) and Kcc2 (Rn00592624_m1). Data were normalized to glyceraldehyde-3-phosphate dehydrogenase (Gapdh) mRNA (Rn01775763_g1). Gene expression was calculated using the ΔΔCT method and data are presented as relative fold change from that of control animals.
# [2] = system: Sprague-Dawley F0 male rats; assay: Long-term serum testosterone after SEVO with or without surgery and TBI; conditions: young adult F0 male rats exposed to SEVO; FIG. 11A
# Procedure: The Sprague-Dawley F0 male rats in the TBI group had SEVO exposure for 40 min to conduct a craniectomy and injury hub implantation on P60. After 60 min of recovery, they were reanesthetized with SEVO for 3 min to induce moderate TBI using a midline fluid percussion injury (FPI) model. The TBI+SEVO group had additional exposure to SEVO for 3 h on P62, P64, and P66. These subsequent exposures to SEVO, which may be needed to treat accompanying conditions, such as orthopedic, abdominal, or thoracic injuries, were used to study whether the effects of SEVO, surgery, and TBI interact to induce their effects. The Sham group had all exposures to SEVO and craniectomy but not TBI. The SEVO-SEVO group had all exposures to SEVO only. The control group had none of these procedures, except being placed in a new cage for an equivalent duration and number of times. A subset of F0 male rats was sacrificed on P66 1 h after the last exposure to SEVO for 3 h or at equivalent timepoints to collect blood to study acute neuroendocrine effects (FIG. 11A). The serum corticosterone levels before and after physical restraint for 30 min were measured ion P140. Ten days after completing the in vivo studies, the same rats were sacrificed and trunk blood samples were collected to measure serum levels of testosterone.
# [3] = G2 female rats, parental sevoflurane exposure
# [4] = G1 female rats, control vs sevoflurane-exposed
# [5] = G1 female rats, more than 3 months after exposure
# [6] = G1 male rats, more than 3 months after exposure
# [7] = G2 females, parental sevoflurane exposures
# [8] = G2 males, all four treatment groups
compound,measurement,setting,value
"FCOC(C(F)(F)F)C(F)(F)F [sevoflurane, 1,1,1,3,3,3-hexafluoro-2-(fluoromethoxy)propane]",PPI of startle responses,"Sprague-Dawley rats; G1 male rats, prepulse intensity of 3 dB, vs control",impaired PPI of startle responses
same,startle amplitudes,Sprague-Dawley rats; G2 female rats,similar
same,PPI of startle,Sprague-Dawley rats; [3],no significant treatment effect
same,startle amplitudes,Sprague-Dawley rats; G2 male rats,similar
same,PPI of startle at PP3,Sprague-Dawley rats; G2 males of both exposed parents,reduced PPI of startle
same,PPI of startle at PP3,Sprague-Dawley rats; G2 males of control fathers and exposed mothers,reduced PPI of startle
same,hippocampal Kcc2 mRNA levels,[1]; [4],similar
same,hippocampal Nkcc1 mRNA levels,[1]; [4],similar
same,Kcc2 mRNA levels in the hypothalamus,[1]; [5],unaltered
same,Nkcc1 mRNA levels in the hypothalamus,[1]; [5],unaltered
same,hippocampal Gr mRNA levels,"[1]; G1 female rats, vs control",Neither hypothalamic Crh mRNA levels (FIG. 4C) nor hippocampal GrmRNA levels (FIG. 4D) were different
same,hypothalamic Crh mRNA levels,"[1]; G1 female rats, vs control",Neither hypothalamic Crh mRNA levels (FIG. 4C) nor hippocampal GrmRNA levels (FIG. 4D) were different
same,hypothalamic levels of Erα mRNA,"[1]; G1 female rats, vs control",not different
same,hypothalamic levels of Erβ mRNA,"[1]; G1 female rats, vs control","slightly, though significantly increased"
same,hypothalamic levels of Gnrh mRNA,"[1]; G1 female rats, vs control",no significant treatment effects
same,increase in hypothalamic aromatase mRNA,"[1]; G1 female rats, vs control",did not achieve statistical significance
same,hypothalamic Crh mRNA levels,"[1]; G1 male rats, 2 hours after the restraint, vs control",increased
same,Kcc2 mRNA levels in the hippocampus,[1]; [6],significantly reduced
same,Kcc2 mRNA levels in the hypothalamus,[1]; [6],decreased
same,Nkcc1 mRNA levels in the hippocampus,[1]; [6],but not Nkcc1 mRNA levels
same,Nkcc1 mRNA levels in the hypothalamus,[1]; [6],normal
same,Gr mRNA in the hippocampus,"[1]; G1 male rats, vs control",reduced
same,hypothalamic levels of Era mRNA,"[1]; G1 male rats, vs control",increased
same,hypothalamic levels of Erβ mRNA,"[1]; G1 male rats, vs control",decreased
same,hypothalamic levels of Gnrh mRNA,"[1]; G1 male rats, vs control",increased
same,hypothalamic levels of aromatase mRNA,"[1]; G1 male rats, vs control",significantly increased
same,hippocampal Gr mRNA levels,[1]; [3],no significant between-subjects effects
same,hypothalamic Crh mRNA,[1]; [3],no significant between-subjects effects
same,Kcc2 mRNA level in the hippocampus,[1]; [7],not significant
same,Kcc2 mRNA levels in the hypothalamus,[1]; [7],not significant
same,Nkcc1 mRNA level in the hippocampus,[1]; [7],not significant
same,Nkcc1 mRNA levels in the hypothalamus,[1]; [7],not significant
same,hippocampal Kcc2 mRNA levels,[1]; G2 male offspring of both exposed parents,reduced
same,hippocampal Kcc2 mRNA levels,[1]; G2 male offspring of exposed fathers and control mothers,reduced
same,hypothalamic Kcc2 mRNA levels,"[1]; G2 male progeny of sevoflurane exposed fathers and mothers, vs offspring of control parents",lower levels
same,Crh mRNA in the hypothalamus,[1]; [8],not different
same,Gr mRNA levels in the hippocampus,[1]; [8],not different
same,Nkcc1 mRNA levels in the hippocampus,"[1]; G2 males, parental sevoflurane exposure",no significant effects
same,serum levels of testosterone,[2],long-term increase
